Active and inactive are the calls of the source. Cut-off read from the data, not from the text of the source, for most assays here: actives have a measured EC50 and inactives only a lower limit.
Experiments:
[1] = tested on: Streptococcus sp. 'group A'; experiment: growth inhibition of control SK(-) GAS strain, dose response, counter-screen for streptokinase expression inhibitor project, luminescence, kanamycin, BacTiterGlo, confirmation (AID 1900); format: functional, organism-based
[2] = tested on: Streptococcus; experiment: Group A Streptococcus viability loss, dose response, counter-screen for streptokinase expression inhibitor project, luminescence, BacTiterGlo (AID 1915); format: functional, organism-based;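 note: potency for reduction of bacterial viability or growth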
[3] = Luminescence Cell-Based Dose Retest to Confirm Inhibitors of Cancer Stem Cells. [Related pubchem assays (depositor defined):AID2717, AID2721]; format: functional, Homo sapiens; conditions: Homo sapiens
[4] = inhibitors of intracellular T. cruzi replication, confirmation, NIH3T3 host cells, beta-gal luminescence (AID 2044); format: functional, cell-based;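 note: intracellular parasites grown in NIH/3T3 mouse fibroblasts as host cells; luminescent beta-galactosidase reporter signal from transgenic T. cruzi replicating inside host cells; inhibitors lower the luminescence signal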
[5] = cytotoxicity toward NIH3T3 fibroblasts, dose response, counter-screen, cell-based, ATP luminescence, mouse fibroblasts (AID 2010); format: functional;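 note: cells exposed to compound for about 90 hours before reading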
[6] = target: T1, Protein RecA (Mycobacterium tuberculosis, UniProt P9WHJ3); experiment: Fluorescence Cell-Free Homogeneous Dose Retest to Identify Inhibitors of RecA-Intein Splicing Activity. [Related pubchem assays (depositor defined):AID2097, AID2223, AID489010, AID492950]; format: functional
T1 sequence (P9WHJ3 whole entry): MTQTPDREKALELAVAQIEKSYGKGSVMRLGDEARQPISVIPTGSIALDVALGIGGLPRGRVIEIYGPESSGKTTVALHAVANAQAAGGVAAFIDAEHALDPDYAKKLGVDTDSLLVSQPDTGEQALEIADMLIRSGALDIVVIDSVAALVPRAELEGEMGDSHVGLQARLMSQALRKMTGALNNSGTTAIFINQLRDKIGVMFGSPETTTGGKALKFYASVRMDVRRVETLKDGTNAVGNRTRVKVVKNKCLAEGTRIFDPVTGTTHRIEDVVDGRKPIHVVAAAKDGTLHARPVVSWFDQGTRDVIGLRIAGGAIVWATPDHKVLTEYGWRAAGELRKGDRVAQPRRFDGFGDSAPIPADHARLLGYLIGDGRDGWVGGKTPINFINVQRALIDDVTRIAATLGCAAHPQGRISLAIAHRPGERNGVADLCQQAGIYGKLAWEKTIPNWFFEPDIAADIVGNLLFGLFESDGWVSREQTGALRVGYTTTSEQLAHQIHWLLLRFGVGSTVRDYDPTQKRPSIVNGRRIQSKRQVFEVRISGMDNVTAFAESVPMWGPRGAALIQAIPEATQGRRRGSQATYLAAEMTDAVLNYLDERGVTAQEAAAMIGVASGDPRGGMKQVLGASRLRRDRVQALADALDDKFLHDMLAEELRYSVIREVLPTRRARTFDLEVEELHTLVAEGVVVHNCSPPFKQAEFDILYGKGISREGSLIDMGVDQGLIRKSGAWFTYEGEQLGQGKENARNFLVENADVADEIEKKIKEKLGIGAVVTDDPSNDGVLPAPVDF

[7] = target: T2, Replicative DNA helicase DnaB (Mycobacterium tuberculosis, UniProt P9WMR3); experiment: DnaB intein splicing inhibitors, dose response, biochemical, cell-free fluorescence (AID 449749); format: functional
T2 sequence (P9WMR3 whole entry): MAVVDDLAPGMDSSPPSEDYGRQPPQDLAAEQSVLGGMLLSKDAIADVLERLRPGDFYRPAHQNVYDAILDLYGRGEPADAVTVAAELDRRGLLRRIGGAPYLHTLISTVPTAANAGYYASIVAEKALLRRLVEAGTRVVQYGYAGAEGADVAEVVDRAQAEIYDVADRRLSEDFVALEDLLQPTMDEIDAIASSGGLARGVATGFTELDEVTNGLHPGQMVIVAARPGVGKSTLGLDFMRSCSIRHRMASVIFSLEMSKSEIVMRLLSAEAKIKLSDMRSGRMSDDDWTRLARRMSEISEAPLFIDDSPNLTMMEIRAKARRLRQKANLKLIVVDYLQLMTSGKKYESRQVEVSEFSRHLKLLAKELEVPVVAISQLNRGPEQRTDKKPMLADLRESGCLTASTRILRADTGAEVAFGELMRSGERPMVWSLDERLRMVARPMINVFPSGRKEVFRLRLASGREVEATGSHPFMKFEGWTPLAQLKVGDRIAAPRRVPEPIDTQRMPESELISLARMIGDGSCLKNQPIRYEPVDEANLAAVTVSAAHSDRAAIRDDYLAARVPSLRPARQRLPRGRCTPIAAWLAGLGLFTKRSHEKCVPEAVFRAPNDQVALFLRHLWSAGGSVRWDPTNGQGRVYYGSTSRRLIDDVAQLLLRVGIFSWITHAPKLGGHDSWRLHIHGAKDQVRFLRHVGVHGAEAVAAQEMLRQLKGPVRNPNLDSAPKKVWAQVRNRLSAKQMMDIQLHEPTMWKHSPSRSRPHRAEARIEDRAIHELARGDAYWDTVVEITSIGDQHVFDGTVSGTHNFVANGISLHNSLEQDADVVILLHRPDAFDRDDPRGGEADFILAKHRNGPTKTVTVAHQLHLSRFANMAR

[8] = target: T3, Streptokinase A (Streptococcus pyogenes serotype M1, UniProt P10520); experiment: S. pyogenes streptokinase expression inhibitors, potency, dose response, plasminogen activation absorbance, OD405 (AID 1914); format: functional, Streptococcus pyogenes M1 GAS;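 note: secreted streptokinase activity via plasminogen activation per viability signal from cell pellet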
T3 sequence (P10520 whole entry): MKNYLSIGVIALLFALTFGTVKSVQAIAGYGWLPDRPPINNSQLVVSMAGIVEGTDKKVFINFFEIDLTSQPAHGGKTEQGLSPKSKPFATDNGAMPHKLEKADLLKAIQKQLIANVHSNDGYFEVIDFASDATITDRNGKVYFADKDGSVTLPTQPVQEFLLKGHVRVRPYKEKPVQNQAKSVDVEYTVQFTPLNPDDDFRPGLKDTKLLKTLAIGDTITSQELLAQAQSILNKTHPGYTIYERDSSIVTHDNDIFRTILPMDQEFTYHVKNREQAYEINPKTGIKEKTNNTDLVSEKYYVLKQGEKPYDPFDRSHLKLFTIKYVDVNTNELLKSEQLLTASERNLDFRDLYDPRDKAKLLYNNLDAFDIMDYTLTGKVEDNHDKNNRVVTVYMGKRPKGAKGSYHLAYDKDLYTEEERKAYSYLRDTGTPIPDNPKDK

Oc1cccc(NC(=S)N=Nc2c(O)[nH]c3ccc(Br)cc23)c1
EC50 [1]: 1.22 µM (active)
EC50 [2]: 4.54 µM (active)

O=C(Nc1ccc(Cl)cc1)Nc1ccccc1Sc1ncc([N+](=O)[O-])s1
AC50 [3]: 4.23 µM (active)

CC(NC(=O)c1cccc(Cn2cc([N+](=O)[O-])cn2)c1)c1ccc(C(C)(C)C)cc1 (configuration not stated)
EC50 [4]: 2.59 µM (active)
EC50 [5]: > 60 µM (not active)

O=C(CCl)N(c1ccccc1)c1ccccc1
EC50 [6]: 0.484 µM (active)
AC50 [7]: 17.1 µM (active)

O=C(N/N=C\c1ccc(F)cc1)c1ccc(Cn2cc(Br)c([N+](=O)[O-])n2)o1
EC50 [4]: 0.761 µM (active)
EC50 [5]: > 60 µM (not active)

CCOC(=O)c1ccc(NC(S)=NN)cc1
EC50 [1]: 9.57 µM (active)
EC50 [2]: > 150 µM (not active)

COc1cccc(-c2sc3ccc(OC)cc3c2C#CCCO)c1
AC50 [3]: 2.79 µM (active)

COc1cc(OC)cc(C(=O)NC(=S)N2CCCCC2c2cccnc2)c1 (configuration not stated)
EC50 [4]: 0.769 µM (active)
EC50 [5]: > 60 µM (not active)

CCOc1ccc(C2C(C#N)=C(N)Oc3[nH]nc(C)c32)cc1OC(=O)C1CC1 (configuration not stated)
EC50 [6]: 9.82 µM (active)
AC50 [7]: 17.7 µM (active)

CCCCOc1ccc(C(=O)CCN2CCOCC2)cc1
EC50 [4]: 0.836 µM (active)
EC50 [5]: > 60 µM (not active)

Cc1cc(N/N=C/c2ccccc2O)nc(-c2ccccc2O)n1
EC50 [1]: 0.855 µM (active)
EC50 [2]: 2.9 µM (active)

CCc1ccc(OCCCCN(C)Cc2ccccc2)cc1
EC50 [4]: 0.213 µM (active)
EC50 [5]: > 60 µM (not active)

N#C/C(=C\c1cccc(O)c1)c1nc2ccccc2o1
EC50 [6]: 9.27 µM (active)
AC50 [7]: 53.1 µM (active)

CC1CC(NC(=O)c2c(O)n3ccsc3nc2=O)CC(C)(C)C1 (configuration not stated)
EC50 [8]: 14.5 µM (active)
EC50 [1]: 11.3 µM (active)
EC50 [2]: > 150 µM (not active)

O=C(CNCCc1ccc(Cl)cc1)Nc1ccc(C(=O)N2CCCCC2)cc1
EC50 [4]: 0.502 µM (active)
EC50 [5]: > 60 µM (not active)

CN1CCN(CC(=O)C23CC4CC(CC(C4)C2)C3)CC1
EC50 [4]: 0.225 µM (active)
EC50 [5]: > 30 µM (not active)

CC(C)c1nc(NCc2ccccc2)c(C#N)c2c1CCCC2
EC50 [8]: 1.96 µM (active)
EC50 [1]: 4.75 µM (active)
EC50 [2]: 12.2 µM (active)

C=CCn1c(SCCC)nc2sc3c(c2c1=O)CCc1ccccc1-3
AC50 [3]: 1.1 µM (active)

CCCOc1ccc(-c2nc(SCc3ccccc3)nc(O)c2C#N)cc1OC
EC50 [4]: 3.11 µM (active)
EC50 [5]: 17.8 µM (active)

COCc1cc(CN2CCCC(C(=O)c3cccc(C(F)(F)F)c3)C2)ccc1OC (configuration not stated)
EC50 [4]: 0.1 µM (active)
EC50 [5]: > 60 µM (inconclusive)

FC(F)(F)c1cccc(NC(=S)N(CCCN2CCCC2)Cc2cccn2Cc2ccc(Cl)cc2)c1
EC50 [4]: 2.15 µM (active)
EC50 [5]: > 60 µM (not active)
AC50 [3]: 3.37 µM (active)

CC1(C)CC2CC(C)(CN2S(=O)(=O)c2ccc(C(=O)Nc3ccc(Cl)c(S(=O)(=O)N4CCOCC4)c3)cc2)C1 (configuration not stated)
EC50 [4]: 2.22 µM (active)
EC50 [5]: 21.6 µM (active)

CCc1ccc(/C=C2/SC(=S)N(CC(=O)Nc3nc4ccccc4s3)C2=O)cc1
EC50 [8]: > 150 µM (not active)
EC50 [1]: 2.87 µM (active)
EC50 [2]: 35.4 µM (active)

O=C(CSc1nnnn1-c1ccc(O)cc1)N1N=C(c2ccc3ccccc3c2)CC1c1ccccc1 (configuration not stated)
EC50 [4]: 2.08 µM (active)
EC50 [5]: > 60 µM (not active)

CCOC(=O)c1ccc(NC(=S)NN)cc1
EC50 [8]: > 150 µM (not active)

Cc1ccc(-c2cc(C(F)F)n3ncc(C(=O)N4CCCCC4c4cccnc4)c3n2)cc1 (configuration not stated)
EC50 [4]: 0.708 µM (active)
EC50 [5]: > 60 µM (inconclusive)

N#Cc1c(N)nc(Sc2ccc(Cl)cc2)c(C#N)c1-c1ccccc1Cl
EC50 [8]: 13.2 µM (active)
EC50 [1]: 4.24 µM (active)
EC50 [2]: > 150 µM (not active)

Cc1cc(N2CCN(c3ccccc3Cl)CC2)n2cc(-c3ccccc3)nc2n1
EC50 [8]: > 150 µM (not active)
EC50 [1]: 11.5 µM (active)
EC50 [2]: 12 µM (active)

CC(C)(C)c1cc(C(=O)NCCN2CCCC2)cc(C(C)(C)C)c1
EC50 [4]: 4.49 µM (active)
EC50 [5]: > 30 µM (not active)

COc1cccc2sc3cc(C#CC4(O)CCCCC4)ccc3c(=O)c12
AC50 [3]: 2.4 µM (active)

Cc1cc(C)c(S(=O)(=O)c2cc(F)ccc2C)c(Cl)n1
EC50 [4]: 1.39 µM (active)
EC50 [5]: > 60 µM (not active)

CCc1ccc(NC2=NCC(c3ccccc3)S2)cc1 (configuration not stated)
EC50 [8]: > 150 µM (not active)
EC50 [1]: 8.39 µM (active)
EC50 [2]: 18.8 µM (active)

C=CCn1c(=O)c(C(=O)NCCc2ccccc2)c(O)c2ccccc21
AC50 [3]: 5.39 µM (active)

COc1ccc(NC(=O)CCN2CCN(C/C=C/c3ccccc3)CC2)cc1
EC50 [4]: 0.686 µM (active)
EC50 [5]: > 60 µM (not active)

COc1ccc(CC(C)N2CCN(Cc3ccccc3)CC2)c(OC)c1 (configuration not stated)
EC50 [4]: 0.502 µM (active)
EC50 [5]: > 30 µM (not active)

O=C(c1cc([N+](=O)[O-])cc([N+](=O)[O-])c1)N1CCN(Cc2ccc3c(c2)OCO3)CC1
EC50 [4]: 0.306 µM (active)
EC50 [5]: > 60 µM (not active)

O=C1CC(NS(=O)(=O)c2ccc([N+](=O)[O-])cc2)CN1c1cccc(F)c1 (configuration not stated)
EC50 [4]: 1.08 µM (active)
EC50 [5]: > 60 µM (not active)

Fc1ccccc1C1c2[nH]c3ccccc3c2CCN1Cc1cccn1-c1ncccn1 (configuration not stated)
EC50 [4]: 1.07 µM (active)
EC50 [5]: > 60 µM (not active)

CCCCn1c(O)c(N=NC(=O)c2ccccc2NS(=O)(=O)c2cccs2)c2ccccc21
EC50 [8]: > 150 µM (not active)
EC50 [1]: 21.8 µM (active)
EC50 [2]: 68.3 µM (active)

C/C(=N\Nc1nc2ccccc2s1)c1ccc2c(c1)OCO2
EC50 [8]: > 150 µM (not active)
EC50 [1]: 16.7 µM (active)
EC50 [2]: 65.6 µM (active)

COc1ccc2sc(-c3ccc(N(C)C)cc3)c(-c3ccc4cc[nH]c4c3)c2c1
AC50 [3]: 3.54 µM (active)

C=CCn1c(SC/C(O)=C(/C#N)C(C)=N)nc2sc(C)c(C)c2c1=O
EC50 [8]: > 150 µM (not active)
EC50 [1]: 6.33 µM (active)
EC50 [2]: 10 µM (active)
